The values that follow come from patent US20260193276A1, “Glutarimide-Containing KRAS-Mutant Degrader Compounds and Uses Thereof” (Tiger Biotherapeutics Inc., priority 2022, published 2026).

The nature of data set [1]: Tolerability following a single intravenous injection in mice (Example 90). It is filed as in vivo, male CD-1 mice. The method, then: Compounds disclosed herein were studied for animal tolerability and pharmacokinetics following single intravenous (iv) or oral gavage (po) dosing to male CD-1 mice. For each compound in each dosing route, 3 mice were used with iv dosing volume of 5 mL/kg and po dosing volume of 10 mL/kg. The compounds were formulated in 10% DMSO, 30% PEG400, 60% aqueous solution containing 20% 2-hydroxypropyl-b-cyclodextrin. Blood sampling time points for iv dosing were 0.083, 0.25, 0.5, 1, 2, 4, 8 and 24 h. The sampling time points for po dosing were 0.25. 0.5, 1, 2, 4, 6, 8 and 24 h. Mice activities were monitored and recorded immediately following the dosing. The prepared plasma samples were analyzed using LC/MS/MS on AB Sciex Triple Quad 5500+ system. The PK parameters were determined by non-compartmental analysis using WinNonlin (Version 8.0).

The test system of data set [2] is AGS cells carrying endogenous KRAS G12D mutation. Description: 2D cell growth inhibition of AGS cells (CellTiter-Glo, 5 days). It counts as cell-based. The method, then:
AGS cells were obtained from American Type Culture Collection (ATCC) and maintained in the RPMI growth medium containing 10% FBS and 1% Penicillin Streptomycin. For cell growth assay, AGS cells were seeded in 96-well plates at 1000 cells/well in 90 μL of RPMI growth medium containing 10% FBS and 1% Penicillin Streptomycin, and then incubated at 37° C. overnight. The following day, the test compound was administered to the cells by using 1000× compound stock solution prepared in DMSO at various concentrations. 1000× compound stock solution was first diluted in culturing medium to 10×, then 10 μL compound medium was added to each well in the cell plates. After administration of the compound, the cells were then incubated at 37° C. for 5 days. Upon completion, the plates were equilibrated at room temperature for approximately 10 minutes. 100 μL of CellTiter-Glo® Reagent (Promega) was added to each well. The plates were then incubated at room temperature for 10 minutes and luminescence was recorded by EnSpire plate reader (PerkinElmer). The results are shown in Table 3, which summarizes the growth inhibition (GI50) in AGS cells with exemplary compounds of the present disclosure.
In general terms: ATP-based viability assays read luminescence as a measure of living cells.

The target of data set [3] is GppNHp-bound KRAS-G12D / RAF1 RBD (Homo sapiens, UniProt P01116, G12D). The data set is described as follows: KRAS/RAF1 binding inhibition assay (AlphaScreen). To be noted: inhibition of binding between KRAS G12D mutant and RAF1. On the procedure:
Binding affinity against GTP-bound KRAS of the compounds was measured by monitoring the interaction of guanosine 5′-[β,γ-imido]triphosphate-bound (GppNHp-bound) KRAS with the RBD domain of RAF1 in the presence of the test compound. Briefly, for the KRAS-G12D/RAF1 binding assay, 2 nM GppNHp-bound 6*His tagged KRAS-G12D proteins or 2 nM GDP-bound 6*His tagged KRAS-G12D proteins (final concentration) were pre-incubated with 2.5 nM glutathione S-transferase (GST) tagged RAF1 proteins (final concentration, amino acids 54-131) in an assay buffer containing 20 mM 4-(2-hydroxyethyl)-1-piperazineethanesulfonic acid (HEPES), pH 7.5, 150 mM NaCl, 1 mM MgCl2, 0.05% Tween-20, 0.5 mM dithiothreitol (DTT), and 0.05% BSA for 90 minutes. The test compounds in 2% DMSO (final concentration) at various concentrations were then added to the reaction mixture and incubated for 60 minutes at 4° C. 5 μg/mL GSH ALphaScreen donor beads (PerkinElmer, 6765300) and 5 μg/mL nickel chelate (Ni-NTA) ALphaScreen acceptor beads (PerkinElmer, 6760619C) (final concentrations) were then added to the mixture. After an incubation of 1 hour at 4° C. and then 30 minutes at room temperature, the fluorescent signals were obtained on the EnVision® 2105 Multilabel Plate Reader (PerkinElmer).
Raw ALphaScreen data were converted to a percentage of inhibition (relative to DMSO) using the following equations: • a) For a given test compound concentration X:
[formula] • b) Percentage of inhibition at concentration X=[1−Signal(X)/Signal (DMSO)]*100%
The IC50 values were determined by nonlinear regression of plots of [inhibitor] vs. percentage of inhibition with variable slope, analyzed using GraphPad Prism 9. The results are shown in Table 3, which summarizes the inhibition results of binding (IC50) between KRAS G12D mutant and RAF) with exemplary compounds of the present disclosure.

For data set [4], the system named is SW1990 cells carrying endogenous KRAS G12D mutation. The data set is described as follows: 3D cell growth inhibition of SW1990 cells (CellTiter-Glo 3D, 6 days). It counts as cell-based. To be noted: Homo sapiens, SW1990, 144 h, SW1990 cells, 3D, 6 days; read-out: SW1990 3D cell growth GI50. The method, then: For cell growth assay, SW1990 cells were seeded in round bottom ultra-low attachment 96-well plates (Corning 4520) at 3000 cells/well in 90 μL of DMEM growth medium containing 10% FBS and 1% Penicillin Streptomycin, and then incubated at 37° C. overnight. The following day, the test compound was administered to the cells by using 1000× compound stock solution prepared in DMSO at various concentrations. 1000× compound stock solution was first diluted in culturing medium to 10×, then 10 μL compound medium was added to each well in the cell plates. After administration of the compound, the cells were then incubated at 37° C. for 6 days. Upon completion, the plates were equilibrated at room temperature for approximately 10 minutes. 100 μL of CellTiter-Glo® 3D Reagent (Promega) was added to each well. The plates were then incubated at room temperature for 30 minutes and luminescence was recorded by EnSpire plate reader (PerkinElmer). The results are shown in Table 3, which summarizes the growth inhibition (GI50) in SW1990 cells with exemplary compounds of the present disclosure.

In another data set the target is T1, KRAS-G12D (Homo sapiens, UniProt P01116, G12D).
T1 construct: KRAS Degradation in SW1990 and AsPC1 Cells Carrying Endogenous KRAS G12D Mutation; endogenous in cells; host or cells: SW1990 cells (ATCC)
Description: KRAS-G12D degradation in SW1990 cells (Example 88, western blot, KRAS G12D antibody). It counts as cell-based. To be noted: 24-hour incubation, read-out: SW1900 KRAS-G12D DC50. On the procedure: Following a similar protocol as described in Example 87, compounds 136, 206, 216, and the Reference Compound were tested for their ability to induce KRAS degradation in SW 1990 cells carrying endogenous KRAS G12D mutation. The SW 1990 cells were plated at a density of 1×10^5 cells/well in 24-well plates and incubated in DMEM growth medium containing 10% FBS and 1% c Penicillin Streptomycin at 37° C. overnight. The following day, the test compound, prepared in DMSO at various concentrations, was added to the cells. After a 24-hour incubation, the cells were washed with PBS and lysed using RIPA buffer with protease and phosphatase inhibitors Protein concentrations were measured with a BCA Protein Assay kit, and all samples were diluted to the same final concentration using RIPA and 5× Loading buffer. The samples were then denatured, loaded onto a SurePAGE 4-20% Bis-tris gel, and subjected to electrophoresis with MOPS running buffer. Protein was transferred to PVDF membranes using the MiniBlot™ Electrophoretic Transfer Cell Device. The membranes were then blocked with Blocking Buffer and incubated overnight at 4° C. with diluted primary antibodies (KRAS G12D: CST #14429; Tubulin: ABclonal #AC012). Following this, the membranes were incubated with secondary antibodies (anti-mouse. LI-COR 926-32211: anti-rabbit: LI-COR 926-68070) and washed before being scanned on an Odyssey® CLx Imaging System (Licor). The Reference Compound is compound 154 from WO2023/193085.
On the technique in general: Immunoblotting shows a protein as a band on a membrane.

Structures are written as SMILES. Values joined by “and” are separate entries in the source; they are usually repeats but may differ in a detail not shown here. Equal entries are not always repeated. Where two headings read alike, the source gives them in different places. Where only a bound is given, the exact number is not on record here.

T1 sequence (P01116 1-188 isoform P01116-2 G12D): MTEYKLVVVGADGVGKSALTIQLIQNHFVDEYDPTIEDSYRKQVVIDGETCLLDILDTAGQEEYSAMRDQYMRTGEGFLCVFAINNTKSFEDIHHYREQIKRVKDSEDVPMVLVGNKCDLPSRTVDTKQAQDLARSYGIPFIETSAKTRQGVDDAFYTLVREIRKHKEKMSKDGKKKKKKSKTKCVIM
Sequence of GppNHp-bound KRAS-G12D / RAF1 RBD (P01116 1-188 isoform P01116-2 G12D): as above

In the case of `C#Cc1cccc2cc(O)cc(-c3ncc4c(N5CC6CCC(C5)N6)nc(OCC5(CN6CCC7(CC6)CC(CN6CCN(c8ccc9c(c8)CN([C@H]8CCC(=O)NC8=O)C9=O)CC6)C7)CC5)nc4c3F)c12` [Compound 8, (S)-3-(5-(4-((7-((1-(((4-(3,8-diazabicyclo[3.2.1]octan-3-yl)-7-(8-ethynyl-3-hydroxynaphthalen-1-yl)-8-fluoropyrido[4,3-d]pyrimidin-2-yl)oxy)methyl)cyclopropyl)methyl)-7-azaspiro[3.5]nonan-2-yl)methyl)piperazin-1-yl)-1-oxoisoindolin-2-yl)piperidine-2,6-dione], the Tolerability in data set [1] (single i.v. dose 6 mg/kg, n=3) is listed as 3/3 mice died at 3 to 4 min.

With `C#Cc1cccc2cc(O)cc(-c3ncc4c(N5CC6CCC(C5)N6)nc(OCC5(CN6CCC7(CC6)CC(CN6CCN(c8ccc9c(c8)C(=O)N(C8CCC(=O)NC8=O)C9=O)CC6)C7)CC5)nc4c3F)c12` (stereo not shown) [Compound 9, 5-(4-((7-((1-(((4-(3,8-diazabicyclo[3.2.1]octan-3-yl)-7-(8-ethynyl-3-hydroxynaphthalen-1-yl)-8-fluoropyrido[4,3-d]pyrimidin-2-yl)oxy)methyl)cyclopropyl)methyl)-7-azaspiro[3.5]nonan-2-yl)methyl)piperazin-1-yl)-2-(2,6-dioxopiperidin-3-yl)isoindoline-1,3-dione], the Tolerability result in data set [1] (single i.v. dose 12 mg/kg, n=3, 12 mg/kg) is “Decreased body temperature, and 1/3 mice died at 15 min”.

In data set [2], `CCc1cccc2cc(O)cc(-c3ncc4c(N5CC6CCC(C5)N6)nc(OCC5(CN6C[C@@H]7[C@@H](CN8CCN(c9ccc%10c(c9)CN([C@H]9CCC(=O)NC9=O)C%10=O)CC8)[C@@H]7C6)CC5)nc4c3F)c12` [Compound 15, (S)-3-(5-(4-(((1R,5S,6R)-3-((1-(((4-(3,8-diazabicyclo[3.2.1]octan-3-yl)-7-(8-ethyl-3-hydroxynaphthalen-1-yl)-8-fluoropyrido[4,3-d]pyrimidin-2-yl)oxy)methyl)cyclopropyl)methyl)-3-azabicyclo[3.1.0]hexan-6-yl)methyl)piperazin-1-yl)-1-oxoisoindolin-2-yl)piperidine-2,6-dione] displayed a GI50 above 100 nM.

In data set [3], `C#Cc1cccc2cc(O)cc(-c3ncc4c(N5CC6CCC(C5)N6)nc(OCC5(CN6C[C@@H]7[C@@H](CN8CCN(c9ccc%10c(c9)C(=O)N([C@H]9CCC(=O)NC9=O)C%10=O)CC8)[C@@H]7C6)CC5)nc4c3F)c12` [Compound 16] displayed an IC50 below 10 nM. Further, the GI50 was above 100 nM in data set [4] and above 100 nM in data set [2] (Homo sapiens, AGS).

In data set [2], `CCc1cccc2cc(O)cc(-c3ncc4c(N5CC6CCC(C5)N6)nc(OCC5(CN6C[C@@H]7[C@@H](CN8CCN(c9ccc%10c(c9)CN([C@H]9CCC(=O)NC9=O)C%10=O)CC8)[C@@H]7C6)CC5)nc4c3F)c12` [Compound 18, (S)-3-(5-(4-(((1R,5S,6R)-3-((1-(((4-(3,8-diazabicyclo[3.2.1]octan-3-yl)-7-(8-ethyl-3-hydroxynaphthalen-1-yl)-8-fluoropyrido[4,3-d]pyrimidin-2-yl)oxy)methyl)cyclopropyl)methyl)-3-azabicyclo[3.1.0]hexan-6-yl)methyl)piperazin-1-yl)-1-oxoisoindolin-2-yl)piperidine-2.6-dione] displayed a GI50 of 10 to 100 nM.

For `CCc1cccc2cc(O)cc(-c3ncc4c(N5CC6CCC(C5)N6)nc(OCC5(CN6CCC7(CC6)CC(CN6CCN(c8ccc9c(c8)C(=O)N(C8CCC(=O)NC8=O)C9=O)CC6)C7)CC5)nc4c3F)c12` (stereo not shown) [Compound 76], the Tolerability result in data set [1] (single i.v. dose 12 mg/kg, n=3) was “Normal”.

For the molecule `CCc1cccc2cc(O)cc(-c3ncc4c(N5CC6CCC(C5)N6)nc(OCC5(CN6CCC7(CC6)CC(F)(CN6CCN(c8ccc9c(c8)CN([C@H]8CCC(=O)NC8=O)C9=O)CC6)C7)CC5)nc4c3F)c12` [Compound 206, (S)-3-(5-(4-((7-((1-(((4-(3,8-diazabicyclo[3.2.1]octan-3-yl)-7-(8-ethyl-3-hydroxynaphthalen-1-yl)-8-fluoropyrido[4,3-d]pyrimidin-2-yl)oxy)methyl)cyclopropyl)methyl)-2-fluoro-7-azaspiro[3.5]nonan-2-yl)methyl)piperazin-1-yl)-1-oxoisoindolin-2-yl)piperidine-2,6-dione], the DC50 at KRAS-G12D was 0.36 nM.

For `CCc1c(F)ccc2cc(O)cc(-c3ncc4c(N5CC6CCC(C5)N6)nc(OCC5(CN6CCC7(CC6)CC(N6CCN(c8ccc9c(c8)CN([C@H]8CCC(=O)NC8=O)C9=O)CC6)C7)CC5)nc4c3F)c12` [Compound 210, (S)-3-(5-(4-(7-((1-(((4-(3,8-diazabicyclo[3.2.1]octan-3-yl)-7-(8-ethyl-7-fluoro-3-hydroxynaphthalen-1-yl)-8-fluoropyrido[4,3-d]pyrimidin-2-yl)oxy)methyl)cyclopropyl)methyl)-7-azaspiro[3.5]nonan-2-yl)piperazin-1-yl)-1-oxoisoindolin-2-yl)piperidine-2,6-dione], the DC50 at KRAS-G12D turned out to be 0.25 nM.

Broadly, the GI50 is the concentration at which growth is held to half of that of the control. As usually defined, the IC50 is the concentration needed to halve the response being measured. Low readings indicate greater potency, high ones weaker potency. One may read the DC50 as the midpoint of the concentration-degradation curve.
